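These data come from cells grown in 96-well plates and exposed to compound for 48 hours at five concentrations. Abbreviation: GI50, concentration required for 50% inhibition of growth.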 Calls of active or inactive are those of the source. Rule as the data show it: active = GI50 up to about 1.1 µM and inactive = higher.
Experiments:
Experiment in all cases: NCI tumour cell line growth inhibition, 48 h
MCF7 = test system: MCF7
NCI-H460 = test system: NCI-H460
KM12 = test system: KM12
SNB-75 = test system: SNB-75
HCT-15 = test system: HCT-15
ACHN = test system: ACHN
DU-145 = test system: DU-145
SF-539 = test system: SF-539
SW-620 = test system: SW-620
SR = test system: SR
UACC-62 = test system: UACC-62
PC-3 = test system: PC-3
HCT-116 = test system: HCT-116
HT-29 = test system: HT-29
SK-OV-3 = test system: SK-OV-3
U-251 = test system: U-251
MOLT-4 = test system: MOLT-4
OVCAR-5 = test system: OVCAR-5
UACC-257 = test system: UACC-257

| Compound | GI50 (MCF7) | GI50 (NCI-H460) | GI50 (KM12) | GI50 (SNB-75) | GI50 (HCT-15) [nM] | GI50 (ACHN) | GI50 (DU-145) | GI50 (SF-539) | GI50 (SW-620) | GI50 (SR) | GI50 (UACC-62) | GI50 (PC-3) | GI50 (HCT-116) | GI50 (HT-29) | GI50 (SK-OV-3) | GI50 (U-251) | GI50 (MOLT-4) | GI50 (OVCAR-5) | GI50 (UACC-257) |
| --- | --- | --- | --- | --- | --- | --- | --- | --- | --- | --- | --- | --- | --- | --- | --- | --- | --- | --- | --- |
| OCc1cn(Cc2ccccc2)c2ccccc12 | 612 nM (active) | 135 nM (active) | > 48000 nM (inactive) | 1510 nM (inactive) | 10800 | 28100 nM (inactive) | > 21600 nM (inactive) | > 34500 nM (inactive) | 1360 nM (inactive) | 12400 nM (inactive) | 646 nM (active) | 30100 nM (inactive) | 555 nM (active) | 1710 nM (inactive) | 11000 nM (inactive) | 1020 nM (active) | > 47300 nM (inactive) | 375 nM (active) | – |
| CCCCCCCCCCCC1NC(N)=NC(CCCO)=C1C(=O)OC (stereo not drawn) | 1790 nM (inactive) | 1940 nM (inactive) | 1610 nM (inactive) | 2790 nM (inactive) | 8220 | 4220 nM (inactive) | 9350 nM (inactive) | 2960 nM (inactive) | 1610 nM (inactive) | 3330 nM (inactive) | 4380 nM (inactive) | 1100 nM (active) | 1920 nM (inactive) | 1730 nM (inactive) | 2330 nM (inactive) | 1670 nM (inactive) | 1860 nM (inactive) | 6620 nM (inactive) | 3160 nM (inactive) |
| NC(=O)C(C(N)=O)=C(O)/C(O)=C/C(=O)c1ccccc1 | 849 nM (active) | > 100000 nM (inactive) | > 100000 nM (inactive) | > 100000 nM (inactive) | > 100000 | > 100000 nM (inactive) | > 100000 nM (inactive) | > 100000 nM (inactive) | 81100 nM (inactive) | 1990 nM (inactive) | > 100000 nM (inactive) | > 100000 nM (inactive) | > 100000 nM (inactive) | > 100000 nM (inactive) | > 100000 nM (inactive) | > 100000 nM (inactive) | – | > 100000 nM (inactive) | > 100000 nM (inactive) |
| Cn1nc(/C=C\C(=O)N2CC(CCl)c3c2cc(N)c2ccccc32)cc1/C=C/C(=O)N1CC(CCl)c2c1cc(N)c1ccccc21 (stereo not drawn) | < 10 nM (active) | < 10 nM (active) | < 10 nM (active) | < 10 nM (active) | 11.9 | < 10 nM (active) | < 10 nM (active) | < 10 nM (active) | < 10 nM (active) | < 10 nM (active) | < 10 nM (active) | < 10 nM (active) | < 10 nM (active) | – | < 10 nM (active) | < 10 nM (active) | < 10 nM (active) | < 10 nM (active) | 22.5 nM (active) |

— ChEMBL document CHEMBL1201862, “PubChem BioAssay data set” (2004)
